Laboratory results taken from paper PMC7937321 (Genes and Environment, 2021).
“Also recorded” adds a separate entry of the source. Read-outs that look alike come from different tables or passages of the source.

Assays:
[1] = test system: human lymphoblastoid TK6 cells, thymidine kinase gene; settings: human
TK6 cells = settings: human
in vitro = settings: human
[2] = test system: human lymphoblastoid TK6 cells, thymidine kinase gene; design: method as in PMID 2184322; settings: 96 h of exposure, absence of S9; ref [67]; cited from earlier work
rodent [3] = settings: cited from earlier work
rats [4] = settings: cited from earlier work
[5] = test system: TA1538, TA100, TA98, TA97, TA1535; settings: cited from earlier work
rats [6] = settings: ref [75]; cited from earlier work
LacI transgenic mice = settings: ref [77]; cited from earlier work
rodent [7] = settings: chromosomal Aberration test, micronucleus test, transgenic rodent gene mutation assay; ref [48], [58]–[63]; cited from earlier work
livers of rats = settings: ref [74]; cited from earlier work
mouse organs = settings: ref [80]; cited from earlier work
[8] = test system: L5178Y mouse lymphoma cells; settings: cited from earlier work
[9] = test system: human lymphoblastoid TK6 cells, thymidine kinase gene; test: TK gene mutation assay (TK6 assay, OECD TG490)
gpt transgenic rats = test system: gpt transgenic rats; design: method as in PMID 20026473, doi:10.3123/jemsge.34.25; settings: ref [23], [78]; cited from earlier work
[10] = test system: 3-D reconstituted human skin cells; design: method as in PMID 32152633; settings: ref [10], [11]; cited from earlier work
mammalian cells = test system: mammalian cells; design: method as in PMID 32152633; settings: ref [10], [11]; cited from earlier work
mice = test system: mice; design: method as in PMID 22539226; settings: ref [6]; cited from earlier work
human lymphocytes = test system: human lymphocytes; design: method as in PMID 22539226; settings: in vitro; ref [6]; cited from earlier work

## COS(C)(=O)=O [MMS, methyl methanesulfonate]
[1]; 4 h, 3 μg/mL
  Mut. freq. T-MF (MF): 23.9 ×10-6
[1]; 4 h, 5 μg/mL
  MF: 71.7
  Mut. freq. N-MF: 29.3 ×10-6
  Mut. freq. S-MF: 42.3 ×10-6
  Mut. freq. T-MF: 71.7 ×10-6
[1]; 24 h, 1 μg/mL
  %SG: 59.3%
  Mut. freq. (×10-6) N-MF: 14.0 ×10-6
  Mut. freq. (×10-6) S-MF: 20.5 ×10-6
  Mut. freq. (×10-6) T-MF: 34.5 ×10-6
[1]; 24 h, 2 μg/mL
  MF: 86.4
  Mut. freq. (×10-6) N-MF: 25.3 ×10-6
  Mut. freq. (×10-6) S-MF: 39.7 ×10-6
  Mut. freq. (×10-6) T-MF: 65.0 ×10-6
  Mut. freq. N-MF: 51.4 ×10-6
  Mut. freq. S-MF: 34.9 ×10-6
  Mut. freq. T-MF: 86.4 ×10-6
TK6 cells; 4 h, 3 μg/mL
  CE0 (%): 48.8%
  CE0 (%), cell viability on Day 0: 38.3%
  CE3 (%): 56.3%
  CE3 (%), cell viability on Day 3: 54.7%
  Daily cell growth Day 1×2×3: 8.36
TK6 cells; 4 h, 5 μg/mL
  Adjusted CE0: 30.4%
  CE0: 32.6%
  Daily cell growth Day 1×2×3: 7.40
  RS: 35.0
  RS0: 35.0%
  RSG: 0.357
TK6 cells; 24 h, 1 μg/mL
  Adjusted CE0(%): 133.2%
  CE0 (%): 63.1%
  CE3: 0.866
  CE3 (%): 86.6%
  Daily cell growth Day 1×2×3: 15.58
  RS0 (%): 59.4%
  RSG: 0.886
TK6 cells; 24 h, 2 μg/mL
  Adjusted CE0: 8.3%
  Adjusted CE0(%): 42.0%
  CE0: 14.6%
  CE0 (%): 21.6%
  CE3 (%): 81.6%
  RS: 12.2
  RS0: 12.2%
  RS0 (%): 18.7%
In vitro; CE0 (%), cell viability on Day 0
  viability at 4 h, 3 μg/mL: 27.3%
In vitro; CE3 (%), cell viability on Day 3
  viability at 4 h, 3 μg/mL: 70.6%

## Nc1ccc(-c2ccc(N)cc2)cc1 [benzidine]
[2]
  Mutagenicity in human TK6 cells: Mutagenicity was confirmed

## Cc1c(N)cccc1N [2,6-Diaminotoluene]
Rodent [3]; report of the National Toxicology Program, ref [24]
  carcinogenicity: non-carcinogenic
Rodent [3]; rodent, ref [20]-[41], Table 2
  Carcinogenicity Studies: Neg
Rats [4]; high dose, ref [79]
  UDS assay: positive
Rats [4]; ref [76]
  unscheduled DNA synthesis (UDS) assay in rats: negative
[5]; TA100 with S9, ref Table 2
  The Highest Specific Activity and the Strain: 1703 revertants/mg in TA100 with S9
[5]; with S9, ref [18]-[40], Table 2
  Bacterial reverse mutation assay, With S9: Pos
[5]; without S9, ref [18]-[40], Table 2
  Bacterial reverse mutation assay, Without S9: Neg
Rats [6]
  hepatocellular proliferation in rats: negative
LacI transgenic mice
  mutagenic assay with LacI transgenic mice: negative
Rodent [7]
  in vivo genotoxicity tests: negative
Livers of rats
  DNA adducts in the livers of rats: marginal amount of adducts
Mouse organs
  comet assay of various mouse organs: negative
TK6 cells
  cytotoxicity: More than 80%
[8]; 4 h, −S9, ref [68]
  mutagenicity in MLA using L5178Y mouse lymphoma cells: occurs
[8]; without S9, ref [27], [46]-[53], Table 3
  MLA (TK gene locus), Without S9: Pos
[9]; 4h treatment (+S9)
  TK6 assay result (mutant frequency increase, judgment): Statistically significant increases of MF; also recorded: mutagenic
[9]; 4h treatment (-S9)
  TK6 assay result (mutant frequency increase, judgment): negative
[9]; 24 h, without S9
  TK mutation assay, Long term: Pos
[9]; 24h treatment (-S9)
  TK6 assay result (mutant frequency increase, judgment): Statistically significant increases of MF; also recorded: positive; also recorded: mutagenic
[9]; all treatments
  TK6 assay overall judgment: positive
[9]; short-term 4 h, with rat liver S9
  TK mutation assay, With S9: Pos
[9]; short-term 4 h, without S9
  TK mutation assay, Without S9: Neg
Gpt transgenic rats
  gpt mutagenic assay with transgenic rats: negative

## C[N+](C)(C)c1ccc2ccc(O)c(N=Nc3ccc(N)c([N+](=O)[O-])c3)c2c1.[Cl-] [Basic Brown 17]
[5]; ref [10], [11]
  Ames test: positive
[10]
  comet assay with 3-D reconstituted human skin cells: negative
Mammalian cells
  in vitro micronucleus test using mammalian cells: negative
[8]; two loci of TK and HPRT, ref [10], [11]
  mutation assays using mouse lymphoma: negative

## CSc1ccc(OCc2ncc([N+](=O)[O-])n2C)cc1 [fexinidazole, reference compound]
Rats [4]; ref [6]
  ex vivo unscheduled DNA synthesis in rats: negative
[5]; ref [6]
  Ames test: positive
mice
  bone marrow micronucleus test in mice: negative
Human lymphocytes
  micronucleus test in human lymphocytes: negative
